Data: BindingDB's records for patent US12570675 (LG Chem, 2026)

Tests used:
[1] = biological target: T1, Proteasome subunit beta type-5 (Homo sapiens, UniProt P28074); assay: Proteasome Activity Inhibition
T1 sequence (P28074 whole entry): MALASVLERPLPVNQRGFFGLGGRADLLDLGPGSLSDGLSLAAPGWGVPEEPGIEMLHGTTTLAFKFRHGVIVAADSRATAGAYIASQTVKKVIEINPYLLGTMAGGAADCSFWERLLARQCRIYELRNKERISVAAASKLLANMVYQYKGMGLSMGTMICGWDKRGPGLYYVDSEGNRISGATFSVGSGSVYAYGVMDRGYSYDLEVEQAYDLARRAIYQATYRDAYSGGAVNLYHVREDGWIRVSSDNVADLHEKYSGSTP
Description: (§1) RPMI8226 cells, which is a multiple myeloma cell line, were cultured and then separated by a centrifuge, and washed twice with phosphate buffered saline (PBS). 20 mM of a tris-HCl (pH 8.0) buffer solution was added to the washed cells, and the cells were disrupted by a homogenizer and centrifuged to obtain S26 protein from the supernatant. Suc-Leu-Leu-Val-Tyr-AMC, for a fluorogenic substrate for the chymotrypsin-like activity of the proteasome, and Z-Leu-Leu-Glu-AMC, for a fluorogenic substrate for the caspase-like activity, were purchased from Calbiochem, EMD Millipore and used. Into each well of a 96-well plate (opaque, black round bottom), 20 ul of the S26 protein (final RPMI8226 cell extract concentration: 2 ug/well), 10 ul of S26 proteasome inhibitor serially diluted from 10 uM (final DMSO concentration: 0.5%), and 20 ul of the fluorogenic substrate for the proteasome chymotrypsin-like or caspase-like activity (final concentration: 20 uM) were added and mixed and allowed to react in a 37° C. incubator for 90 minutes. The fluorescence of the fluorogenic substrate was measured by FlexStation II Fluorometer (Molecular Devices). The fluorescence inhibited by the compound diluted at each concentration was measured as the relative percentage value for the amount obtained from the treatment only with the S26 protein and the fluorogenic substrate.

[2] = biological target: T2, Proteasome subunit beta type-6 (Homo sapiens, UniProt P28072); assay: Proteasome Activity Inhibition
T2 sequence (P28072 whole entry): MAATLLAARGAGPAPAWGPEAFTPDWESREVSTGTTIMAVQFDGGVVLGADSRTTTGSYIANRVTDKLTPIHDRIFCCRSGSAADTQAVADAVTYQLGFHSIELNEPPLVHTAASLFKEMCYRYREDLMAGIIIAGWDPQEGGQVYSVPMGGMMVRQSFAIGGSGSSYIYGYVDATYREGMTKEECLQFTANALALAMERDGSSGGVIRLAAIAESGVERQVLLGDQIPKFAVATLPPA
Description: as §1

Structure (SMILES)	IC50 [1]	IC50 [2]
COc1ccc(Cl)cc1-c1cccc(C2=NOC(Cc3ccccc3)(C(=O)N[C@@H](CC(C)C)B(O)O)C2)c1 (stereo partly drawn) [US12570675, Example 35]	< 500 nM	–
CC(C)C[C@H](NC(=O)C1CC(CNc2ccccn2)=NO1)B(O)O (stereo partly drawn) [US12570675, Example 60]	< 250 nM	–
CC(C)C[C@H](NC(=O)C1CC(CNC(=O)C2Cc3ccccc3C2)=NO1)B(O)O (stereo partly drawn) [US12570675, Example 78]	< 50 nM	–
CC(C)C[C@H](NC(=O)C1CC(CNC(=O)C2CCCc3ccccc32)=NO1)B(O)O (stereo partly drawn) [US12570675, Example 80]	< 25 nM	> 500 nM
CC(C)C[C@H](NC(=O)C1(Cc2ccccc2)CC(CNC(=O)c2cn(C(C)C)c3ccccc23)=NO1)B(O)O (stereo partly drawn) [US12570675, Example 209]	< 10 nM	–
CC[C@H](NC(=O)C1(Cc2ccccc2)CC(CNC(=O)c2ccccc2)=NO1)B(O)O (stereo partly drawn) [US12570675, Example 293]	< 25 nM	> 500 nM
